Experimental data reported in patent US20140363845A1, “CHOLESTEROL-BASED MEDIA SUPPLEMENTS FOR CELL CULTURE” (Biogen Idec MA Inc., priority 2011, published 2014).

How the values were obtained:
[1] = medium hold study: cholesterol adsorption in disposable WAVE Bioreactor bag; type: physicochemical; conditions: medium with 2.5 mg/L cholesterol (1 ml GCLC/liter), after 22 hours of incubation in 2 L WAVE Bioreactor bag
Experimental: (§1) The rate of cholesterol depletion from the culture medium in single-use disposable bioreactor bags was determined. A medium hold study was performed in which 1.4 L of fresh pre-warmed culture medium containing 2.5 mg/L cholesterol (1 ml GCLC/liter medium) was added into a 2 L WAVE BIOREACTOR™ bag. The bag was then incubated under standard culture conditions, and 200 ml medium aliquots were aseptically removed from the bag at 15 min, 4 h, 7.5 h and 22 h incubation times. The medium aliquots at each time point were analyzed for cholesterol concentration (FIG. 1) and used to inoculate shake flask cultures seeded at 4×10^5 cells/ml. Shake-flask cultures were passaged for three days under standard conditions. A shake-flask control culture (no prior exposure to WAVE Bioreactor™ bag) containing 2.5 mg/L cholesterol (1 ml GCLC per liter medium) was seeded in parallel. Viable cell density and viability were measured every 24 hours (FIG. 2).
(§2) Viable cell density was determined using a Cedex Automated Cell Culture Analyzer (Roche Innovatis AG). pH and pCO2 were measured off-line using a BioProfile pHOx analyzer (Nova Biomedical). Cholesterol concentration was measured using GC analysis by Invitrogen Medium Analytical Services.

NS0 cells [2] = test: shake flask cell growth in medium held in WAVE Bioreactor bag; set-up: species or system murine; conditions: based on medium hold study and shake flask growth and viability data
Experimental: as §1
A cholesterol-dependent NS0 cell line expressing recombinant antibody was used in the study. The culture medium used was a chemically defined medium formulation. […]
as §2

NS0 cells [3] = test: cholesterol dosing in high cell density pseudo-perfusion shake flask culture; type: cell-based, murine; conditions: seed density 8×10^6 cells/ml
Experimental: FIG. 5A and FIG. 5B are graphs of a cholesterol dosing study in high cell density cell culture generated using pseudo-perfusion mode. […] Pseudo-perfusion cultures were established in shake flasks using growth medium supplement with GCLC at the following concentrations: 2.5 mg/L (▪), 7.5 mg/L (▴), 10.0 mg/L (0) to 12.5 mg/L (∘). Full volume medium exchanges were carried out on a daily basis. […] There was full volume exchange of medium in the shake flasks on a daily basis. The initial seed density was 8×10^6 cells/ml, and one volume of fresh growth medium was exchanged daily starting on day 1 post inoculation.

NS0 cells [4] = conditions: ethanol dose study
Experimental: Cells were suspended in fresh medium containing increased amount of GCLC at concentrations of 5 mg/L and 7.5 mg/L and then incubated for 3 days in 2 L bags under standard cell culture conditions.

| SMILES | cholesterol concentration in the medium [1] | cholesterol concentration in the medium to be maintained to support cell growth (NS0 cells [2]) | support of cell growth (NS0 cells [3]; 2.5 mg total cholesterol/L, daily full volume medium exchange) | cholesterol concentration required to support growth (NS0 cells [3]; high cell density pseudo-perfusion culture) [mg/L] | ethanol concentration at which cell growth was not inhibited (NS0 cells [4]) |
| --- | --- | --- | --- | --- | --- |
| CC(C)CCC[C@@H](C)[C@H]1CC[C@H]2[C@@H]3CC=C4C[C@@H](O)CC[C@]4(C)[C@H]3CC[C@]12C [cholesterol] | below detectable limits | above 1.0 mg/L | insufficient to support growth | > 7.5 | – |
| CCO [ethanol] | – | – | – | – | below 2% |
